# Laboratory results as given in publication PMC10724293, “New ruthenium-xanthoxylin complex eliminates colorectal cancer stem cells by targeting the heat shock protein 90 chaperone” (Cell Death & Disease, 2023).
# Where “and” joins values, the source holds several entries; their conditions need not be identical. Equal values may be shown once.
# Key:
# HCT116 cells [1] = assay: Trypan blue exclusion assay; format: cell-based, human; settings: 2.5, 5 and 10 μM; 24, 48 and 72 h
# Protocol: The trypan blue exclusion assay was used to quantify the number of viable cells. Briefly, 90 μl of the cell suspension plus 10 μl of trypan blue (0.4%) were mixed, and an aliquot was analyzed in a hemocytometer. The number of viable (unstained cells) and nonviable (trypan blue-stained cells) cells was counted using a light microscope.
# HCT116 cells [2] = assay: qPCR array of human cancer drug target genes; format: cell-based; parameters: key to RQ, gene BCL2 / RQ, gene IGF1R / RQ, gene KDR / RQ, gene EGFR / RQ, gene CTSB / RQ, gene RHOA / RQ, gene ESR1 / RQ, gene MDM2 / RQ, gene MDM4 / RQ, gene TOP2A / RQ, gene TOP2B / RQ, gene ATF2 / RQ, gene NFKB1 / RQ, gene TP53 / RQ, gene AURKC / RQ, gene CDC25A / RQ, gene CDK1 / RQ, gene CDK2 / RQ, gene CDK5 / RQ, gene CDK8 / RQ, gene NTN3 / RQ, gene HRAS / RQ, gene KRAS: 2^−ΔΔCT relative quantification vs DMSO control (calibrator = 1); settings: 10 µM, 12 h; CTL = 1.0
# Protocol: Total RNA was isolated using the RNeasy Plus Mini Kit (Qiagen; Hilden, Germany) according to the manufacturer’s instructions. The RNA was tested for purity and quantified using a NanoDrop® 1000 spectrophotometer (Thermo Fisher Scientific, Waltham, Massachusetts, USA). The Superscript VILOTM Kit was used for RNA reverse transcription (Invitrogen Corporation; Waltham, MA, USA). TaqMan® array human cancer drug targets 96-well plate, fast (ID RPRWENH, Applied BiosystemsTM, Foster City, CA, USA) was used for gene expression quantification by qPCR. The reactions were carried out in an ABI ViiA7 system (Applied BiosystemsTM).
# The cycle conditions were 2 min at 50 °C, 10 min at 95 °C, and 40 cycles of 15 s at 95 °C and 1 min at 60 °C. All experiments were carried out in DNase/RNase-free environments. The 2^−ΔΔCT method was used to calculate the relative quantification (RQ) of mRNA expression using Gene Expression SuiteTM Software (Applied BiosystemsTM), and cells treated with the negative control (0.2% DMSO) served as a calibrator. The RQs of the reference genes HPRT1, TFRC and YWHAZ were used to normalize the reactions.
# HCT116 cells [3] = assay: Colony-forming assay; format: cell-based, human; settings: 24, 48, 72 h treatment, 14 days culture
# Protocol: To test clonogenic ability, 1000 cells were seeded in 6-well plates with 6 ml of complete medium and incubated with the drug for 24, 48, and 72 h. The medium was then changed to drug-free fresh medium and cultured for a total of 14 days. The cells were then fixed in methanol and stained with 0.5% crystal violet. The number of colonies with more than 50 cells was counted using an optical microscope (Nikon, TS100).
# BAD KO SV40 MEF = assay: Alamar blue survival curves and cell death; format: cell-based, mouse; settings: BAD KO SV40 MEF vs WT SV40 MEF; 10 μM, 48 h
# Protocol: The Alamar blue assay was used to determine cell viability as previously described. Cells were seeded into 96-well plates at a density of 7 × 10^3 cells per well for adherent cells or 3 × 10^4 cells per well for suspended cells. The drug was added to each well after 24 h of incubation for adherent cells or immediately for suspended cells and incubated for an additional 72 h. […] Each well received 100 µM resazurin (Sigma-Aldrich Co. St. Louis, MO, United States) four (for cell lines) or 24 (for primary culture) h before the end of the incubation. A SpectraMax 190 Microplate Reader (Molecular Devices, Sunnyvale, CA, USA) was used to measure absorbance at 570 and 600 nm.
# For apoptosis detection or functional assays, cell viability was quantified using annexin V-FITC/PI (FITC Annexin V Apoptosis Detection Kit I, BD Biosciences, San Jose, CA, USA) or YO-PRO-1/PI (Sigma-Aldrich Co.). The following inhibitors were used: chloroquine (autophagy inhibitor, Ipca Laboratories, Mumbai, MH, India); 3-methyladenine (autophagy inhibitor, Sigma-Aldrich Co.); and lithium chloride (Wnt activator, Sigma-Aldrich Co.).
substance,measurement,setting,value
cis-[Ru(phen)2(xant)](PF6) [RXC],number of viable cells,HCT116 cells [1],reduced the number of viable cells
same,"RQ, gene ABCC1",HCT116 cells [2],0.777
same,"RQ, gene AKT1",HCT116 cells [2],0.624
same,"RQ, gene AKT2",HCT116 cells [2],0.896
same,"RQ, gene ATF2",HCT116 cells [2],0.856
same,"RQ, gene AURKA",HCT116 cells [2],0.343
same,"RQ, gene AURKB",HCT116 cells [2],0.562
same,"RQ, gene AURKC",HCT116 cells [2],0.498
same,"RQ, gene BCL2",HCT116 cells [2],0.944
same,"RQ, gene BIRC5",HCT116 cells [2],0.499
same,"RQ, gene CDC25A",HCT116 cells [2],1.174
same,"RQ, gene CDK1",HCT116 cells [2],1.021
same,"RQ, gene CDK2",HCT116 cells [2],1.057
same,"RQ, gene CDK4",HCT116 cells [2],1.065
same,"RQ, gene CDK5",HCT116 cells [2],0.446
same,"RQ, gene CDK7",HCT116 cells [2],1.621
same,"RQ, gene CDK8",HCT116 cells [2],0.943
same,"RQ, gene CDK9",HCT116 cells [2],0.986
same,"RQ, gene CTSB",HCT116 cells [2],1.307
same,"RQ, gene CTSD",HCT116 cells [2],0.826
same,"RQ, gene CTSL",HCT116 cells [2],1.073
same,"RQ, gene CTSS",HCT116 cells [2],0.500
same,"RQ, gene EGFR",HCT116 cells [2],1.135
same,"RQ, gene ERBB2",HCT116 cells [2],0.312
same,"RQ, gene ERBB3",HCT116 cells [2],0.814
same,"RQ, gene ESR1",HCT116 cells [2],1.523
same,"RQ, gene ESR2",HCT116 cells [2],1.673
same,"RQ, gene FLT4",HCT116 cells [2],3.841
same,"RQ, gene GRB2",HCT116 cells [2],1.220
same,"RQ, gene GSTP1",HCT116 cells [2],0.609
same,"RQ, gene HDAC1",HCT116 cells [2],0.509
same,"RQ, gene HDAC2",HCT116 cells [2],0.509
same,"RQ, gene HDAC3",HCT116 cells [2],0.879
same,"RQ, gene HDAC4",HCT116 cells [2],1.233
same,"RQ, gene HDAC6",HCT116 cells [2],0.969
same,"RQ, gene HDAC7",HCT116 cells [2],0.975
same,"RQ, gene HDAC8",HCT116 cells [2],0.826
same,"RQ, gene HDAC11",HCT116 cells [2],1.433
same,"RQ, gene HIF1A",HCT116 cells [2],0.663
same,"RQ, gene HRAS",HCT116 cells [2],1.867
same,"RQ, gene HSP90AA1",HCT116 cells [2],0.353 and 0.35
same,"RQ, gene HSP90B1",HCT116 cells [2],0.285 and 0.28
same,"RQ, gene IGF1R",HCT116 cells [2],1.146
same,"RQ, gene IRF5",HCT116 cells [2],1.472
same,"RQ, gene KDR",HCT116 cells [2],0.896
same,"RQ, gene KRAS",HCT116 cells [2],2.847
same,"RQ, gene MDM2",HCT116 cells [2],2.327
same,"RQ, gene MDM4",HCT116 cells [2],1.960
same,"RQ, gene MTOR",HCT116 cells [2],0.595
same,"RQ, gene NFKB1",HCT116 cells [2],1.055
same,"RQ, gene NRAS",HCT116 cells [2],0.893
same,"RQ, gene NTN3",HCT116 cells [2],2.364
same,"RQ, gene PARP1",HCT116 cells [2],0.485
same,"RQ, gene PARP4",HCT116 cells [2],0.791
same,"RQ, gene PDGFRB",HCT116 cells [2],2.249
same,"RQ, gene PIK3C2A",HCT116 cells [2],1.177
same,"RQ, gene PIK3C3",HCT116 cells [2],1.485
same,"RQ, gene PIK3CA",HCT116 cells [2],0.956
same,"RQ, gene PLK1",HCT116 cells [2],0.890
same,"RQ, gene PLK2",HCT116 cells [2],1.023
same,"RQ, gene PLK3",HCT116 cells [2],1.749
same,"RQ, gene PLK4",HCT116 cells [2],1.081
same,"RQ, gene PRKCA",HCT116 cells [2],0.567
same,"RQ, gene PRKCB",HCT116 cells [2],0.993
same,"RQ, gene PRKCD",HCT116 cells [2],1.557
same,"RQ, gene PRKCE",HCT116 cells [2],1.461
same,"RQ, gene PTGS2",HCT116 cells [2],1.461
same,"RQ, gene RHOA",HCT116 cells [2],0.937
same,"RQ, gene RHOB",HCT116 cells [2],1.762
same,"RQ, gene TERT",HCT116 cells [2],0.866
same,"RQ, gene TNKS",HCT116 cells [2],2.951
same,"RQ, gene TOP2A",HCT116 cells [2],0.769
same,"RQ, gene TOP2B",HCT116 cells [2],1.055
same,"RQ, gene TP53",HCT116 cells [2],1.058
same,"RQ, gene TXN",HCT116 cells [2],1.184
same,"RQ, gene TXNRD1",HCT116 cells [2],3.038
same,clonogenic survival,HCT116 cells [3],inhibit the clonogenic survival
same,role of the proapoptotic protein BAD in induced cell death,BAD KO SV40 MEF,BAD-independent cell death
